# “Also recorded” adds a separate entry of the source.
# Tested on: rat visual cortex
# Assay: LTP in visual cortex slice
# Details: rat primary visual cortex brain slices; fEPSP amplitude after theta burst stimulation; drug infused 20 minutes before LTP induction
# Text: The effect of the Ampakine, i.e. benzo[1,2,5]oxadiazol-5-yl-piperidin-1-yl-methanone, in the visual cortex was investigated using brain slices prepared from primary visual cortex to determine if this compound facilitates the induction of long-term potentiation (LTP). LTP is a well established cellular model for synaptic plasticity and the encoding of information. The visual cortex is one synapse removed from the eye and integrates visual signals generated by the retina. It is thus essential for decoding, processing and transforming visual inputs originating in the eye, and proper visual cortical function is necessary for normal vision.
# Following decapitation of the anesthetized rat, the brain was rapidly removed and immersed in ice-cold artificial cerebrospinal fluid (ACSF) containing (in mM) NaCl 124, KCl 3, KH2PO4 1.25, CaCl2 3.4, MgSO4 2.5, NaHCO3 26, and D-glucose 10. A block of visual cortex was created by removing the frontal ⅔ portion of the brain and the cerebellum. […] This is repeated 2 additional times with a 1 minute inter-train interval, and the level of LTP was recorded for at least 30 min. Changes in amplitude of the synaptic response were used to measure the extent of LTP, since the amplitude was determined to be the more consistent parameter than the slope of the response. […] LTP was recorded for at least 30 min after induction.
compound,measurement,value
"O=C(c1ccc2nonc2c1)N1CCCCC1 [benzo[1,2,5]oxadiazol-5-yl-piperidin-1-yl-methanone]",enhancement of visual cortex long-term potentiation (LTP),dose-dependent facilitation of long-term potentiation in rat visual cortex; also recorded: marked and dose-dependent enhancement of visual cortex LTP
